PMC7754455 (Journal of Clinical Pharmacology, 2020)

What was measured:
[1] = Simcyp PBPK model parameter
[2] = Clinical DDI study part 1: plasma PK of molibresib alone and with itraconazole; settings: with itraconazole vs alone, dose-normalized
[3] = Blood and plasma binding and permeability PBPK input parameters; settings: PBPK model parameter, fixed to observed value
[4] = Clinical DDI study part 2: plasma PK of molibresib alone and with rifampicin; settings: for AUC0‐∞ / Cmax / t1/2 / tmax: part 2 n = 14; for AUC0‐∞ / Cmax / t1/2: geometric mean (CVb%); for tmax: median (range)
[5] = Safety and tolerability in the DDI study; settings: one subject, part 1, appeared on day 6
[6] = preclinical findings; cited from earlier work
[7] = human urine; ref study BET115521; cited from earlier work
[8] = with rifampicin vs alone, part 2

## COc1ccc2c(c1)C(c1ccc(Cl)cc1)=N[C@@H](CC(N)=O)c1nnc(C)n1-2 [GSK3529246]
[1]
  Compound type: Monoprotic base
  Log P: 1.6
  pKb: 7.36
[2]; AUC 0 to infinity
  AUC Observed Geometric Mean Ratio (90%CI): 0.29 (0.26‐0.32)
[2]
  Cmax Observed Geometric Mean Ratio (90%CI): 0.13 (0.11‐0.14)
[3]
  Blood:plasma ratio: 0.9
[3]; fraction unbound
  Fu plasma: 0.2
[4]; part 2
  increase in Cmax with rifampicin: 2 fold
[4]; molibresib 10 mg alone
  AUC0‐∞: 622 (26) ng·h/mL
  Cmax: 49.0 (24) ng/mL
  t1/2: 10.0 (22) h
  tmax: 2.0 (1.0‐4.1) h
[4]; molibresib 20 mg + rifampicin
  AUC0‐∞: 1140 (26) ng·h/mL
  Cmax: 200 (24) ng/mL
  t1/2: 10.0 (24) h
  tmax: 1.0 (0.53‐1.5) h
[4]; [8]
  AUC0‐∞ Geometric Mean Ratio, Dosed Normalized (90%CI): 0.917 (0.850‐0.989)
  Cmax Geometric Mean Ratio, Dosed Normalized (90%CI): 2.04 (1.78‐2.32)

## CCC(C)n1ncn(-c2ccc(N3CCN(c4ccc(OCC5COC(Cn6cncn6)(c6ccc(Cl)cc6Cl)O5)cc4)CC3)cc2)c1=O (stereo not drawn) [itraconazole]
[5]
  adverse event considered related by the investigator: mild elevations in liver enzymes

## CCNC(=O)C[C@@H]1N=C(c2ccc(Cl)cc2)c2cc(OC)ccc2-n2c(C)nnc21 [Molibresib]
[6]
  preclinical adverse effects on male reproductive organs: adverse effects on the testes including sperm retention and disorganized spermatogenesis
[7]
  urinary excretion of unchanged drug: approximately 9.5 % of the total dose administered
